From US9616129B2, “Compositions and methods for potentiating immune response, enhancing immunotherapy, and increasing vaccine potency” (Nitor Therapeutics, priority 2013, dated 2017)

How the values were obtained:
human TLR4 = target: T1, human TLR4 (Homo sapiens, UniProt O00206); experiment: TLR ligand screening, NF-κB SEAP reporter in HEK293 cells expressing TLR4; format: cell-based; conditions: one concentration: Guanosine 100 uM, NTR001 10 uM, Inosine 100 uM; FIG. 2
T1 construct: expressed in transfected cells; host or cells: HEK293
Procedure: (§1) TLR stimulation is tested by assessing NF-κB activation in HEK293 cells expressing a given TLR. The Secreted Embryonic Alkaline Phosphatase (SEAP) reporter is under the control of a promoter inducible by the transcription factor NF-κB. This reporter gene allows the monitoring of signaling through the TLR, based on the activation of NF-κB. The compounds are evaluated at one concentration and compared to control ligands. This step is performed in triplicate.

human TLR7 = target: T2, human TLR7 (Homo sapiens, UniProt Q9NYK1); experiment: TLR ligand screening, NF-κB SEAP reporter in HEK293 cells expressing TLR7; format: cell-based; conditions: one concentration: NTR001 10 uM, Inosine 100 uM; FIG. 2
T2 construct: expressed in transfected cells; host or cells: HEK293
T2 sequence (Q9NYK1 27-1049): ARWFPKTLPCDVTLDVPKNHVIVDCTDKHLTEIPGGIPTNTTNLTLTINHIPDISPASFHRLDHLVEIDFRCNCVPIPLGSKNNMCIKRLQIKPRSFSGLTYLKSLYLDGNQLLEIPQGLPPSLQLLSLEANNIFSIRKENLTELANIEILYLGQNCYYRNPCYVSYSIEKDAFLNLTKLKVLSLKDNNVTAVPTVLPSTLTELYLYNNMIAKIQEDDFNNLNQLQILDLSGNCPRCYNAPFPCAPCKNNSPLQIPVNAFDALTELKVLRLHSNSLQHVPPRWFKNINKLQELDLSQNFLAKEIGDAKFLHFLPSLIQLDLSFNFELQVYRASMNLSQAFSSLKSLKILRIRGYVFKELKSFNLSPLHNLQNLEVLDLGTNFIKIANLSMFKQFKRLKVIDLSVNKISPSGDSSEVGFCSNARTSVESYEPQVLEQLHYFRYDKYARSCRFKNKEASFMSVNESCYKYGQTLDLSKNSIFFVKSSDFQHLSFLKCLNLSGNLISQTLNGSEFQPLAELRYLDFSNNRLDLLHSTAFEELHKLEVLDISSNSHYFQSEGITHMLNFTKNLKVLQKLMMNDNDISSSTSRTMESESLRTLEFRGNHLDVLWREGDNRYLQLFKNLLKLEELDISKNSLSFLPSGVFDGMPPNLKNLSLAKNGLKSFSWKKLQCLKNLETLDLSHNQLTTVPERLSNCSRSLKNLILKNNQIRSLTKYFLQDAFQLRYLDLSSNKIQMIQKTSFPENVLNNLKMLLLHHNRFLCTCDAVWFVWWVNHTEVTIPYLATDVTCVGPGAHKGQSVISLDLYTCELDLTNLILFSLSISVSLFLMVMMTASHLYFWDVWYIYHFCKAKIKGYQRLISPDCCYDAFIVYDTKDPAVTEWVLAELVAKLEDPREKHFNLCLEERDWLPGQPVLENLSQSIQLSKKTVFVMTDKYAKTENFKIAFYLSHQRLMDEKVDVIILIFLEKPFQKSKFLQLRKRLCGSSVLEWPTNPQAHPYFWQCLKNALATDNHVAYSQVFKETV
Procedure: as §1

human TLR9 = target: T3, human TLR9 (Homo sapiens, UniProt Q9NR96); experiment: TLR ligand screening, NF-κB SEAP reporter in HEK293 cells expressing TLR9; format: cell-based; conditions: one concentration: NTR001 10 uM, Inosine 100 uM; FIG. 2
T3 construct: expressed in transfected cells; host or cells: HEK293
T3 sequence (Q9NR96 26-1032): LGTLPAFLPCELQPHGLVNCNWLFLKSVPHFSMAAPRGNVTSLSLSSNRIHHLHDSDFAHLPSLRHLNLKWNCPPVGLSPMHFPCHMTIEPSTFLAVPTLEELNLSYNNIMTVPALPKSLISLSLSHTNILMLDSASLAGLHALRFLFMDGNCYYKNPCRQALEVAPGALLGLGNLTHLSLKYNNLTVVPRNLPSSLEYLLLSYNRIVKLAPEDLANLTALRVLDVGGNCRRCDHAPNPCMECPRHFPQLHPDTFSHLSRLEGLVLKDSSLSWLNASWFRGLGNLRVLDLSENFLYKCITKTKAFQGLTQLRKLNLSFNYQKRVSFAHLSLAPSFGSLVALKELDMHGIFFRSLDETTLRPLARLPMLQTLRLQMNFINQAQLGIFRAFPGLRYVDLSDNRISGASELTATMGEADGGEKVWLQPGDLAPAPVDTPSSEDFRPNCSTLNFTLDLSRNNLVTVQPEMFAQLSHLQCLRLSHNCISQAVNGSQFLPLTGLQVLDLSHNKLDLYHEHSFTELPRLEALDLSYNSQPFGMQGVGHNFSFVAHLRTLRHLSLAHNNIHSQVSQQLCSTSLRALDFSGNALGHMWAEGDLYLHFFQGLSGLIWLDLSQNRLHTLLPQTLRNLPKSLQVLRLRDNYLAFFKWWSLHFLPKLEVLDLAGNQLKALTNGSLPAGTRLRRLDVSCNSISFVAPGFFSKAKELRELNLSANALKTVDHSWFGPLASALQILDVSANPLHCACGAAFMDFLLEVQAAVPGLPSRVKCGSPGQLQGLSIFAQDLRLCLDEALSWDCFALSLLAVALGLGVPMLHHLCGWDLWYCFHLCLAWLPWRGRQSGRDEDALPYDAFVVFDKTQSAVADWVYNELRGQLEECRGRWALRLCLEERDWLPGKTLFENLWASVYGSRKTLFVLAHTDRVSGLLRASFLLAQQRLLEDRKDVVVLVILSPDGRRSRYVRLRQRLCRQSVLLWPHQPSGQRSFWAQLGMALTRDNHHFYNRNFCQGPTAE
Procedure: as §1

tetanus toxoid vaccine = experiment: Tetanus toxoid vaccine efficacy study (adjuvant) in mice; format: in vivo; conditions: compared to vehicle treated group
Procedure: Tetanus toxoid (TT) was used to vaccinate mice thrice, two weeks apart. Mice were treated by oral administration of compounds NTR001 and NTR002 and serum was collected at various time points for antibody titer and interferon-g analysis. Mice in Groups 2-6 (Table 2) are vaccinated subcutaneously with 0.1 ml tetanus toxoid vaccine on DAYS 0, 14 and 28. Mice in Group 1 (Table 1) received no vaccine. Antibody titers for DAYS 38 are determined by ELISA using tetanus toxoid coated microtiter plates and anti-mouse conjugate. Sera from DAY 30 are assayed by ELISA for interferon-g.

B16 tumors = experiment: Syngeneic mouse melanoma model; format: in vivo, C57BL/6 mice
Procedure: Cancer cells were injected subcutaneously in right flank of each mouse, 1×10^4 cells in 0.1 ml PBS with 20% Matrigel. Treatment with the NTR001 was initiated on day 6 after injection of tumor cells. Tumor volume and survival were recorded every 3-4 days.

[1] = tested on: L. monocytogenes (ATCC Strain35152, hemolytic substrain); experiment: Mouse model of L. monocytogenes infection; format: in vivo; conditions: Balb/c mice infected i.v. with 1×10^6 CFU; treatments per Table 3; FIGS. 7 and 9

T1 sequence (O00206 24-839): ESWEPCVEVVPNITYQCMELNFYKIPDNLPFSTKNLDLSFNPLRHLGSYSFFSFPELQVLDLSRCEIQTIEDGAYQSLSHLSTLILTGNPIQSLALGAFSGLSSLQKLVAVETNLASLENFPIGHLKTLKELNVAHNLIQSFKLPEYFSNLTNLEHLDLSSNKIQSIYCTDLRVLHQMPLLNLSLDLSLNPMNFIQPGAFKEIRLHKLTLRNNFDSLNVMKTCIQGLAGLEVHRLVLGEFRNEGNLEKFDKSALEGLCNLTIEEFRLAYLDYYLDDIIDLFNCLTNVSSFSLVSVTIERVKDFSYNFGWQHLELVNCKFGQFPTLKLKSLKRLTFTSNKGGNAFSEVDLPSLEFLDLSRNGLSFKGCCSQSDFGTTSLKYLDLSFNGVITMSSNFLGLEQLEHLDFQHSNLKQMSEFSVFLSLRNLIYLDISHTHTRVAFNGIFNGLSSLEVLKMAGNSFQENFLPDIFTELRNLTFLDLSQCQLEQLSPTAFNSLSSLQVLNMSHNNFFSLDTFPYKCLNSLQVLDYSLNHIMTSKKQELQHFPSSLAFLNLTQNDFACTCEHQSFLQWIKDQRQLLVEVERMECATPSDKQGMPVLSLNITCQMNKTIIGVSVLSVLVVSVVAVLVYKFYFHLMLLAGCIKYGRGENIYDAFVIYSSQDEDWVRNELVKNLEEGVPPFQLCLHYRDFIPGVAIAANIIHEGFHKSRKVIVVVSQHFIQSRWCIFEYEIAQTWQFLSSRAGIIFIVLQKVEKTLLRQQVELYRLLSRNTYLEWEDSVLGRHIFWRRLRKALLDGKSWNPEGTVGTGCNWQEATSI
T1 sequence (Q9Y6Y9 17-160 partner limits assumed): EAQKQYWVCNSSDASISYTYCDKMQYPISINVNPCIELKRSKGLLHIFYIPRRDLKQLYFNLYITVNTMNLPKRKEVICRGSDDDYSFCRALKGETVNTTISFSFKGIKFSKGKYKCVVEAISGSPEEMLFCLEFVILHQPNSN

Row | SMILES | stimulatory effect on human TLR4 (NF-κB activation) (human TLR4) | stimulatory effect on human TLR7 (NF-κB activation) (human TLR7) | stimulatory effect on human TLR9 (NF-κB activation) (human TLR9) | serum interferon-g (tetanus toxoid vaccine; day 30, ELISA, high dose group 60 mg/kg p.o., FIG. 4) | serum tetanus toxoid antibody titers (tetanus toxoid vaccine; day 38, ELISA, p.o. 30 mg/kg (6 days of treatment) and 60 mg/kg (3 days of treatment), FIG. 3) | tumor volume (B16 tumors; B16 melanoma, C57BL/6 mice, treatment from day 6, FIG. 5) | survival (B16 tumors; NTR001 as single agent (30 mg/kg PO week on/off or 5 mg/kg drinking water), FIG. 6) | weight loss [1]
1 | OC[C@H]1O[C@@H](n2cnc3c(O)ncnc32)[C@H](O)[C@@H]1O [Inosine] | do not exhibit a stimulatory effect | do not exhibit a stimulatory effect | do not exhibit a stimulatory effect |  |  |  |  | 
2 | O=c1[nH]cnc2c([C@@H]3N[C@H](CO)[C@@H](O)[C@H]3O)c[nH]c12 [NTR001, 7-[(2S,3S,4R,5R)-3,4-dihydroxy-5-(hydroxymethyl)-2-pyrrolidinyl]-1,5-dihydro-4H-pyrrolo[3,2-d]pyrimidin-4-one] | do not exhibit a stimulatory effect | do not exhibit a stimulatory effect | do not exhibit a stimulatory effect | elevated | significantly elevated | significant decrease | 0-20% | significant decrease
